One experiment deals with HTT mRNA. The experiment in a line: RT-qPCR splicing assay, HTT canonical (CJ) and alternative (AJ) junction mRNA. Format: cell-based. The settings on record: Homo sapiens; for AC50: read-out: HTT AJ AC50; for IC50: read-out: HTT CJ IC50. In outline: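 Splice-junction mRNAs (CJ, AJ) measured by TaqMan one-step RT-qPCR on cell lysates, using PPIA as reference for adherent A673 and GAPDH or GUSB for K562. Cells exposed for 24 h to 11 threefold concentrations up to 10 uM final, with DMSO at or below 0.25%.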

The next experiment deals with Target C. The experiment in a line: RT-qPCR splicing assay, gene panel, Target C canonical junction (CJ) mRNA. The class given is cell-based. The settings on record: Homo sapiens, read-out: Target C CJ IC50. The gist of the method:
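A673 (DMEM/10% FBS) or K562 (IMDM/10% FBS) cells were treated 24 h at 37 °C with an 11-point 3-fold dilution series, top final 10 uM, DMSO ≤0.25%. Lysates underwent one-step RT-qPCR for the canonical-junction isoform with GAPDH, GUSB or PPIA as housekeeper. ΔΔCt versus DMSO was converted to RQ (2^−ΔΔCt), then to percent response.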
(In general: Real-time PCR tracks product formation cycle by cycle.)

The mark [1] stands for this setting: decrease in CJ mRNA levels, larger panel of genes, Table 3.
The mark [2] stands for this setting: decrease in canonical junction mRNA, A673 or K562 cells, 24 hours treatment, Table 2.
Where [3] appears, read: increase in alternative junction mRNA, A673 or K562 cells, 24 hours treatment, Table 2.

SMILES strings stand for the structures. Counter-ions that a name gives are not always drawn. Like-named read-outs stand apart in the source and are kept apart here.

The source of these data is patent US20250082633A1, “COMPOUNDS AND METHODS FOR MODULATING SPLICING” (REMIX THERAPEUTICS INC., priority 2021, published 2025).

Regarding `Cc1cn2nc(-c3cc(F)c4nn(C5CCN(CCO)C6(CC6)C5)cc4c3)cc(C)c2n1` (centres unmarked) [Compound 180, 2-[7-[5-(2,8-dimethylimidazo[1,2-b]pyridazin-6-yl)-7-fluoro-indazol-2-yl]-4-azaspiro[2.5]octan-4-yl]ethanol], in the experiment on HTT mRNA (24 h), the AC50 is less than 100 nM. The IC50 is less than 100 nM with HTT mRNA (24 h), less than 100 nM in the experiment on HTT mRNA and 100 to 1000 nM with Target C.

In the case of `Cc1nc2c(C)cc(-c3cc(F)c4nn(C5CCNCC5)cc4c3)cc2o1` [Compound 137, 6-[7-fluoro-2-(4-piperidyl)indazol-5-yl]-2,4-dimethyl-1,3-benzoxazole], the IC50 in the experiment with HTT mRNA (setting [1]) was less than 100 nM; in the experiment with HTT mRNA (setting [2]), less than 100 nM; in the experiment on Target C (setting [1]) it was 100 to 1000 nM. Moreover, in the experiment with HTT mRNA (setting [3]), the half-maximal activity concentration (AC50) was less than 100 nM.

For `Cc1c(O)c(-c2ccc3nn(C4CCNCC4)nc3n2)cc2cn(C)nc12` [Compound 113, 2,7-dimethyl-5-[2-(4-piperidyl)triazolo[4,5-b]pyridin-5-yl]indazol-6-ol], the IC50 is 1000 to 10000 nM in the experiment with HTT mRNA (setting [1]), 1000 to 10000 nM in the experiment with HTT mRNA (setting [2]) and more than 10000 nM in the experiment with Target C (setting [1]). Also, the AC50 with HTT mRNA (setting [3]) was in the range of 1000 to 10000 nM.

Consider `COc1cc2nn(C3CCNCC3)cc2cc1-c1cc(C)c2nc(C)cn2n1` [Compound 159, 6-(6-methoxy-2-(piperidin-4-yl)-2H-indazol-5-yl)-2,8-dimethylimidazo[1,2-b]pyridazine], for which the IC50 in the experiment on HTT mRNA (setting [1]), in the experiment on HTT mRNA (setting [2]) and with Target C (setting [1]) was more than 10000 nM in each case. Also, the AC50 in the experiment on HTT mRNA (setting [3]) was more than 10000 nM.

For the compound `Cc1cn2nc(-c3cc(F)c4nn(C5CCN(C6CCC6)C6(CC6)C5)cc4c3)cc(C)c2n1` (centres unmarked) [Compound 186, 6-[2-(4-cyclobutyl-4-azaspiro[2.5]octan-7-yl)-7-fluoro-indazol-5-yl]-2,8-dimethyl-imidazo[1,2-b]pyridazine], the AC50 with HTT mRNA (24 h) is less than 100 nM. The IC50 in the experiment on HTT mRNA (24 h), in the experiment with HTT mRNA and in the experiment on Target C was less than 100 nM in each case.

Regarding `Cn1cc2cc(-c3cc(F)c4nn(C5CCNCC5)cc4c3)cc(C#N)c2n1` [Compound 130, 5-[7-fluoro-2-(4-piperidyl)indazol-5-yl]-2-methyl-indazole-7-carbonitrile], the IC50 in the experiment with HTT mRNA (setting [1]) is less than 100 nM; in the experiment with HTT mRNA (setting [2]) it was less than 100 nM; in the experiment with Target C (setting [1]) it was 100 to 1000 nM. In addition, the AC50 in the experiment with HTT mRNA (setting [3]) is less than 100 nM.

`COc1cc(-c2cc3cn(C)nc3cc2O)nc2cn(C3CCNCC3)nc12` [Compound 140, 5-[7-methoxy-2-(4-piperidyl)pyrazolo[4,3-b]pyridin-5-yl]-2-methyl-indazol-6-ol]: the IC50 in the experiment on HTT mRNA (setting [1]), with HTT mRNA (setting [2]) and in the experiment with Target C (setting [1]) was 1000 to 10000 nM throughout. Also, in the experiment on HTT mRNA (setting [3]), the AC50 was in the range of 1000 to 10000 nM.

Regarding `Cc1cc(-n2cc3cc(N4CCNCC4)cc(F)c3n2)cc2cn(C)nc12` [Compound 117, 2-(2,7-dimethylindazol-5-yl)-7-fluoro-5-piperazin-1-yl-indazole], the IC50 in the experiment with HTT mRNA (setting [1]), with HTT mRNA (setting [2]) and in the experiment with Target C (setting [1]) was more than 10000 nM throughout. In addition, the AC50 in the experiment with HTT mRNA (setting [3]) fell in the range of 1000 to 10000 nM.

For the compound `Cn1cc2cc(-c3cc(F)c4nn(C5CCNCC5)nc4c3)cc(F)c2n1` [Compound 103, 4-fluoro-6-(7-fluoro-2-methyl-indazol-5-yl)-2-(4-piperidyl) benzotriazole], the IC50 with HTT mRNA (setting [1]) lay within 100 to 1000 nM; in the experiment on HTT mRNA (setting [2]), 100 to 1000 nM; with Target C (setting [1]), 1000 to 10000 nM. For the same compound, the AC50 with HTT mRNA (setting [3]) is 100 to 1000 nM.

As to `Cn1cc2cc(-c3cc(F)c4nn(C5CCNC6(CC6)C5)cc4c3)cc(F)c2n1` (centres unmarked) [Compound 108, 2-(4-azaspiro[2.5]octan-7-yl)-7-fluoro-5-(7-fluoro-2-methyl-indazol-5-yl)indazole], the IC50 in the experiment with HTT mRNA (setting [1]) is 100 to 1000 nM; with HTT mRNA (setting [2]), 100 to 1000 nM; in the experiment with Target C (setting [1]) it was 1000 to 10000 nM. The AC50 with HTT mRNA (setting [3]) was in the range of 100 to 1000 nM.

In the case of `Cn1cc2cc(-c3cc(F)c4nn(C5CCNCC5)cc4c3)ccc2n1` [Compound 145, 7-fluoro-5-(2-methylindazol-5-yl)-2-(4-piperidyl)indazole], the IC50 in the experiment with HTT mRNA (setting [1]), in the experiment on HTT mRNA (setting [2]) and in the experiment on Target C (setting [1]) was 100 to 1000 nM throughout. In addition, the AC50 in the experiment on HTT mRNA (setting [3]) lay in the range of 100 to 1000 nM.

`Cc1cn2nc(-c3cc(F)c4nn(C5CCN(CCF)CC5)cc4c3)cc(C)c2n1` [Compound 152]: the IC50 in the experiment with HTT mRNA (setting [1]) was less than 100 nM; in the experiment on HTT mRNA (setting [2]), less than 100 nM; in the experiment on Target C (setting [1]), 100 to 1000 nM. For the same compound, the AC50 with HTT mRNA (setting [3]) was 100 to 1000 nM.

Take `Cc1cn2nc(-c3cc(F)c4nn([C@@H]5CCNC[C@H]5F)cc4c3)cc(C)c2n1` [Compound 168, 6-(7-fluoro-2-((3R,4R)-3-fluoropiperidin-4-yl)-2H-indazol-5-yl)-2,8-dimethylimidazo [1,2-b]pyridazine]: the 50% inhibitory concentration (IC50) in the experiment with HTT mRNA (setting [1]) was less than 100 nM; in the experiment with HTT mRNA (setting [2]) it was less than 100 nM; in the experiment on Target C (setting [1]), 100 to 1000 nM. Moreover, in the experiment on HTT mRNA (setting [3]), the AC50 lay in the range of 100 to 1000 nM.

As for `Cc1cn2nc(-c3cc(F)c4nn(C5CCN(C)CC5)cc4c3)cc(C)c2n1` [Compound 150, 6-[7-fluoro-2-(1-methyl-4-piperidyl)indazol-5-yl]-2,8-dimethyl-imidazo[1,2-b]pyridazine], the IC50 in the experiment with HTT mRNA (setting [1]) is less than 100 nM; with HTT mRNA (setting [2]) it was less than 100 nM; in the experiment on Target C (setting [1]) it was 100 to 1000 nM. Moreover, the AC50 in the experiment on HTT mRNA (setting [3]) is less than 100 nM.

With `COC1=C(C)C2N=C(C)OC2C=C1c1cc(F)c2nn(C3CCNCC3)cc2n1` (centres unmarked) [Compound 144], the IC50 with HTT mRNA (setting [1]), in the experiment with HTT mRNA (setting [2]) and in the experiment with Target C (setting [1]) was more than 10000 nM throughout. For the same compound, the AC50 in the experiment on HTT mRNA (setting [3]) is more than 10000 nM.

On to `Cc1cn2nc(-c3cc4cn(C5CCNCC5)nc4c(OCc4ccccc4)n3)cc(C)c2n1` [Compound 153, 6-[7-benzyloxy-2-(4-piperidyl)pyrazolo [3,4-c]pyridin-5-yl]-2,8-dimethyl-imidazo[1,2-b]pyridazine], for which the IC50 with HTT mRNA (setting [1]), with HTT mRNA (setting [2]) and in the experiment with Target C (setting [1]) was more than 10000 nM throughout. The AC50 in the experiment with HTT mRNA (setting [3]) lay within 1000 to 10000 nM.

As for `Cc1cn2nc(-c3cc(F)c4nn(C5CCN(CCO)CC5)cc4c3)cc(C)c2n1` [Compound 160, 2-[4-[5-(2,8-dimethylimidazo[1,2-b]pyridazin-6-yl)-7-fluoro-indazol-2-yl]-1-piperidyl]ethanol], the AC50 in the experiment on HTT mRNA (24 h) is less than 100 nM. The IC50 in the experiment on HTT mRNA (24 h) was less than 100 nM; in the experiment on HTT mRNA, less than 100 nM; with Target C it was 100 to 1000 nM.

Consider `Cc1cn2nc(-c3cc(O)c4nn(C5CCNCC5)cc4c3)cc(C)c2n1` [Compound 156, 5-(2,8-dimethylimidazo[1,2-b]pyridazin-6-yl)-2-(piperidin-4-yl)-2H-indazol-7-ol], for which the IC50 in the experiment on HTT mRNA (setting [1]) was in the range of 100 to 1000 nM; with HTT mRNA (setting [2]) it was 100 to 1000 nM; in the experiment on Target C (setting [1]), 1000 to 10000 nM. In addition, the AC50 with HTT mRNA (setting [3]) is 100 to 1000 nM.

Consider `Cc1cn2nc(-c3cc4cn(C5CCNCC5)nc4cn3)cc(C)c2n1` [Compound 147, 2,8-dimethyl-6-[2-(4-piperidyl)pyrazolo[3,4-c]pyridin-5-yl]imidazo[1,2-b]pyridazine], for which the IC50 with HTT mRNA (setting [1]), with HTT mRNA (setting [2]) and in the experiment on Target C (setting [1]) was 100 to 1000 nM in each case. Also, in the experiment on HTT mRNA (setting [3]), the AC50 lay in the range of 100 to 1000 nM.

For the compound `Cc1cn2cc(-c3cc(F)c4nn(C5CCNCC5)cc4c3)cc(Cl)c2n1` [Compound 127, 5-(8-chloro-2-methylimidazo[1,2-a]pyridin-6-yl)-7-fluoro-2-(piperidin-4-yl)-2H-indazole hydrochloride salt], the concentration for half-maximal inhibition (IC50) in the experiment with HTT mRNA (setting [1]) was less than 100 nM; in the experiment with HTT mRNA (setting [2]) it was less than 100 nM; with Target C (setting [1]), 100 to 1000 nM. Further, the AC50 in the experiment on HTT mRNA (setting [3]) is 100 to 1000 nM.

One may read the AC50 as the concentration at which the activity in the assay is half-maximal. The term IC50 denotes the concentration at which inhibition is half-maximal.
